This note sets out measurements from patent US20260092054A1, “FUSED RING COMPOUND AND PHARMACEUTICAL CONTAINING SAME” (KAKEN PHARMACEUTICAL CO., LTD., priority 2022, published 2026).

As usually defined, the IC50 is the midpoint of a concentration-inhibition curve. What is called inhibition is the share of the control response that was lost under treatment.

The target of one experiment is T1, human STAT6/pIL-4Rα (Homo sapiens, UniProt P42226).
T1 construct: histidine tag
T1 sequence (P42226 123-658): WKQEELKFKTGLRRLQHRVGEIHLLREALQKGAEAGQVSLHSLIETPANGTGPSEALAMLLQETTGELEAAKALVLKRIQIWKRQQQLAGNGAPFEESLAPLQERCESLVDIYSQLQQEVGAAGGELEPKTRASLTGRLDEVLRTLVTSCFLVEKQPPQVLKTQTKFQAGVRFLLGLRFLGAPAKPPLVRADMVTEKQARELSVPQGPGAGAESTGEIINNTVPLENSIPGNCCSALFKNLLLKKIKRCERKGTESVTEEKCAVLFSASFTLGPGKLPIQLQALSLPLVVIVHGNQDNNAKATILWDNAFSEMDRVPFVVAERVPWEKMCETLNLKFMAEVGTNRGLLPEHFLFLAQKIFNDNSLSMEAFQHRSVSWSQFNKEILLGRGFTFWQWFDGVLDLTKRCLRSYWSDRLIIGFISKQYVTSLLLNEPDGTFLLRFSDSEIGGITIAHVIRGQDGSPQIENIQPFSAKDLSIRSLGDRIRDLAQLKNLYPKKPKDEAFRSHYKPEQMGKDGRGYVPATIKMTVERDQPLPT
Description: Binding inhibitory activity between human STAT6/pIL-4Rα by fluorescence polarization method. The following applies: rhSTAT6 (123-658) / FAM-pIL-4Rα peptide. As for the experimental part:
Test Example 1: Measurement of Binding Inhibitory Activity Between Human STAT6/pIL-p 4Rα by Fluorescence Polarization Method
1) Construction of Histidine Tag-Fused Recombinant Human STAT6 (123 to 658 Region)
A histidine tag-fused recombinant human STAT6 (hereinafter referred to as rhSTAT6) expression vector [plasmid DNA in which a nucleic acid sequence containing human STAT6 (123-658 region) was inserted into a pET28a(+) vector (Novagen)] was inserted into E. coli, and the cells were cultured overnight under culturing conditions at 17° C. with IPTG treatment. After disrupting E. coli with a high-pressure homogenizer (EmulsiFlex-C3, manufactured by AVESTIN, Inc.), affinity purification using Ni-NTA agarose (manufactured by Qiagen), cation exchange chromatography using HiTrap® CM-FF (manufactured by GE healthcare), and gel filtration chromatography using Superdex® 200 10/300GL (manufactured by GE healthcare) were performed to obtain rhSTAT6.
2) Measurement of Binding Inhibitory Activity Between Human STAT6/pIL-4Rα by Fluorescence Polarization Method
A DMSO solution of the example compound was diluted with an assay buffer [for example, a buffer containing 50 mmol/L NaCl, 10 mmol/L HEPES (pH 7.0), 1 mmol/L DTT, 1 mmol/L EDTA, and 0.01 vol % NP-40, and the like] to prepare a compound-added solution. The DMSO concentration in the compound addition solution was adjusted to 1 or 2 vol %. 10 μL of the compound addition solution and an assay buffer containing 1 or 2 vol % DMSO were added to each well of a 384-well plate. 5 μL of an assay buffer solution containing rhSTAT6 (rhSTAT6 concentration: for example, 1 μmol/L) or an assay buffer was added to each well of a 384-well plate. After leaving the plate at room temperature for 30 minutes in the dark, 5 μL of an assay buffer solution (FAM-pIL-4Rp concentration: for example, 80 nmol/L) containing FAM-labeled phosphorylated IL-4Rα peptide (sequence: FAM-Ala-pTyr-Lys-Pro-Phe-Gln-Asp-Leu-IIe-NH2) (hereinafter, FAM-pIL-4Rp) or an assay buffer containing 2 vol % DMSO was added to each well of the 384-well plate. The mixture was left to stand at room temperature for 30 minutes in the dark, and then centrifuged (200 g, 1 minute, room temperature). Fluorescence polarization values were measured using Infinite (registered trademark) F500 (manufactured by Tecan Japan Co., Ltd.) (Excitation: 485 nm, Emission: 535 nm). The inhibition rate of each Example compound was calculated according to the following formula using the fluorescence polarization value (A) when rhSTAT6 and FAM-pIL-4Rp were added without adding the Example compound, the fluorescence polarization value (B) when FAM-pIL-4Rp was added without adding the Example compound and rhSTAT6, and the fluorescence polarization value (C) when each Example compound, rhSTAT6, and FAM-pIL-4Rp were added.
In the evaluation of each example compound, the 50% inhibitory concentration (IC50) of each example compound was calculated from a linear function equation of a straight line connecting two points sandwiching 50%.
A general note: In fluorescence polarisation assays a small probe gives low polarisation when free and higher when bound to something large.
`CCn1c(-c2ccc(N3C(=O)C(C)CC3C)cc2)nc2cc(C(F)(F)F)cc(C(=O)Nc3cccc(C(N)=O)c3)c21` (single isomer, unassigned) [Ex. 13] had an IC50 of 9090 nM.
On the same count and under the same terms, then `CCn1c(-c2ccc(N3C(=O)C(C)CC3C)cc2)nc2cc(C(F)(F)F)cc(C(=O)Nc3cccc(C(N)=O)c3F)c21` (single isomer, unassigned) [Ex. 220], with 9600 nM.
Compound `CC1CC(C)N(c2ccc(-c3cc4ccnc(C(=O)Nc5ccc(F)c(C(N)=O)c5)c4n3CC3(C#N)CC3)cc2)C1=O` (single isomer, unassigned) [Ex. 222] came in with an IC50 of 3100 nM.
For the compound `CC1CC(C)N(c2ccc(-c3cc4ccnc(C(=O)Nc5cccc(C(N)=O)c5F)c4n3CC3(C#N)CC3)cc2)C1=O` (single isomer, unassigned) [Ex. 224], the IC50 was 1590 nM.
As for `CCn1c(-c2ccc3c(c2)CCN(C(C)=O)C3)nc2cc(C(F)(F)F)cc(C(=O)Nc3cccc(C(N)=O)c3)c21` [Ex. 3], the IC50 was 2280 nM.
`CCn1c(-c2ccc(-n3ccccc3=O)cc2)nc2cc(C(F)(F)F)cc(C(=O)Nc3cccc(C(N)=O)c3C)c21` [Ex. 10] had an IC50 of 3260 nM.
On the same count and under the same terms, then `COCCn1c(-c2ccc3c(c2)CCOC3C(=O)O)nc2cc(C(F)(F)F)cc(C(=O)Nc3cccc(C(N)=O)c3)c21` (stereo not drawn) [Ex. 29], with 840 nM.
Same read-out and setting: then `COCCn1c(-c2ccc3c(c2)CCOC3C(N)=O)nc2cc(C(F)(F)F)cc(C(=O)Nc3cccc(C(N)=O)c3)c21` (stereo not drawn) [Ex. 36], with 400 nM; and `COCCn1c(-c2ccc(-n3c(C)nn(C)c3=O)cc2)cc2cc(C(F)(F)F)cc(C(=O)Nc3ccc(F)cc3)c21` [Ex. 53], with 3970 nM.
Turning to `COCCn1c(-c2ccc(-n3c(C)nn(C)c3=O)cc2)cc2cc(C(F)(F)F)cc(C(=O)Nc3ccncc3)c21` [Ex. 54], the IC50 came to 3390 nM.
Compound `Cc1nn(C)c(=O)n1-c1ccc(-c2cc3cc(C(F)(F)F)cc(C(=O)Nc4ccc(F)c(C(N)=O)c4)c3n2C)cc1` [Ex. 55] gave an IC50 of 2570 nM.
Regarding `CCn1c(-c2ccc(-n3c(C)nn(C)c3=O)cc2)cc2cccc(C(=O)Nc3cccc(C(N)=O)c3F)c21` [Ex. 58], the IC50 was 550 nM.
Consider `CCn1c(-c2ccc(-n3c(C)nn(C)c3=O)cc2)cc2cc(F)cc(C(=O)Nc3cccc(C(N)=O)c3F)c21` [Ex. 60], for which the IC50 came out at 470 nM.
On to `COCCn1c(-c2ccc(-n3c(C)nn(C)c3=O)cc2)cc2cc(C(F)(F)F)cc(C(=O)Nc3cccc(S(N)(=O)=O)c3)c21` [Ex. 63], for which the IC50 came to 2530 nM. Compared with the last compound, the IC50 is about 5.4-fold higher.
`CCn1c(-c2ccc(-n3cnn(C)c3=O)cn2)cc2cc(C(F)(F)F)cc(C(=O)Nc3ccc(F)c(C(N)=O)c3)c21` [Ex. 64]: the IC50 amounted to 2620 nM.
The compound `CCn1c(-c2ccc(N3CCCCC3=O)cc2)cc2cc(C(F)(F)F)cc(C(=O)Nc3ccc(F)c(C(N)=O)c3)c21` [Ex. 71] showed an IC50 of 1180 nM.
In turn, `COCCn1c(-c2ccc(-n3c(C)nn(C)c3=O)cc2)cc2cc(C(F)(F)F)cc(C(=O)Nc3nncs3)c21` [Ex. 79] registered an IC50 of 1900 nM.
In turn, `COCCn1c(-c2ccc(-n3c(C)nn(C)c3=O)cc2)cc2cc(C(F)(F)F)cc(C(=O)Nc3cc[nH]n3)c21` [Ex. 81] registered an IC50 of 2270 nM. The IC50 values of the last two compounds are within 1.5-fold of each other.
`CCn1c(-c2ccc(-n3c(C)nn(C)c3=O)cc2)cc2ccnc(C(=O)Nc3cccc(C(N)=O)c3)c21` [Ex. 82] yielded an IC50 of 1140 nM.
On the same count and under the same terms, then `COCCn1c(-c2ccc(-n3c(C)nn(C)c3=O)cc2)cc2cc(C(F)(F)F)cc(C(=O)Nc3cncs3)c21` [Ex. 86], with 1780 nM; and `COCCn1c(-c2ccc(-n3c(C)nn(C)c3=O)cc2)cc2cc(C(F)(F)F)cc(C(=O)Nc3cccnn3)c21` [Ex. 87], with 1000 nM.
`Cc1nn(C)c(=O)n1-c1ccc(-c2cc3ccnc(C(=O)Nc4cccc(C(N)=O)c4F)c3n2CC2CC2)cc1` [Ex. 89] yielded an IC50 of 940 nM.
`CCn1c(-c2ccc(-n3c(C)nn(C)c3=O)cc2)cc2cc(C(F)(F)F)nc(C(=O)Nc3cccc(C(N)=O)c3)c21` [Ex. 96] registered an IC50 of 1890 nM. This IC50 is about 2-fold higher than that of the compound before.
For the compound `CCn1c(-c2ccc(-n3c(C)nn(C)c3=O)cc2)cc2cc(C(F)(F)F)cc(C(=O)Nc3ccc4c(c3)NC(=O)C4)c21` [Ex. 101], the IC50 turned out to be 4060 nM.
`CCn1c(-c2ccc(-n3c(C)nn(C)c3=O)cc2)cc2cc(C(F)(F)F)cc(C(=O)Nc3ccc(CC(N)=O)cc3)c21` [Ex. 103] returned an IC50 of 2660 nM.
In turn, `CCn1c(-c2ccc(-n3c(C)nn(C)c3=O)cc2)cc2cc(C(F)(F)F)cc(C(=O)Nc3ccc(CC(=O)NC)cc3)c21` [Ex. 104] gave an IC50 of 730 nM.

Another experiment deals with human STAT6. In words: Human STAT6 dependent reporter activity (IL-4 stimulated STAT6 reporter assay using STAT6-HEK293 cells). It counts as cell-based. The following applies: Homo sapiens, compound 0.1 μmol/L; IL-4 stimulation, luciferase activity; read-out: Inhibition rate (%). As for the experimental part: Test Example 2: Measurement of Human STAT6 Dependent Reporter Activity
1) Construction of Human STAT6-HEK293 Cells
HEK 293 cells maintenance cultured by [Penicillin-Streptomycin (Thermo Fisher Scientific) and FBS, 1 vol % and 10 vol % respectively added to DMEM high glucose (Thermo Fisher Scientific)](manufactured by ATCC) were collected, and suspended in 10 mL of 0.5% BSA/PBS. 1×10^6 cells were collected, the supernatant was removed by centrifuging, and the cells were suspended in 100 μL of Nucleofector solution V (manufactured by Lonza K.K.). 2 μg of STAT6 vector [plasmid DNAs incorporating human STAT6 sequences in pcDNA3.1 (Invitrogen)] was added, and the STAT6 vector was introduced into the HEK293 cells using the program Q-001 initially registered in the Nucleofector®2b. A cell line (STAT6-HEK293 cells) consistently expressing STAT6 was acquired by selecting resistant cells in a medium containing Geneticin® (manufactured by Thermo Fisher Scientific). 2) STAT6 reporter assay using STAT6-HEK293 cells 3×10^6 STAT6-HEK293 cells maintained in assay medium [culture medium supplemented with 1 vol % Geneticin®] were harvested and seeded in a 10 cm dish. 3 μg of a STAT6 reporter vector [plasmid in which a sequence containing a STAT6 binding sequence and a C/EBP binding sequence in tandem was incorporated into pGL4.27 (manufactured by Promega Corporation)] and 9 μL of FuGENE® HD transfection reagent (manufactured by Promega Corporation) were added to 500 μL of Opti-MEM® (manufactured by Thermo Fisher Scientific) to prepare transfection solutions. The transfection solution was vortexed and left to stand for about 5 minutes, then added dropwise to the STAT6-HEK293 cells, which were then cultured overnight in a C02 incubator to produce STAT6 reporter cells.
The prepared STAT6 reporter cells were seeded on B&W isoplate-96 TC (PerkinElmer Japan Co., Ltd.) (3×10^4 cells/50 μL/well) and cultured overnight in a C02 incubator (37° C., 5% C02). 50 μL of assay medium was added to each well instead of the STAT6 reporter cells. The compound addition solution was prepared by diluting the DMSO solution of the example compound 250-fold using the assay medium. 20 μL of compound addition solution or 0.4 vol % DMSO-containing assay medium was added to the plate, and the plate was then cultured in a CO2 incubator for 1 hour. 10 μL of 80 ng/mL human IL-4 solution (Peprotech) or assay medium was added to each well, and the cells were cultured in a CO2 incubator for 6 hours.
STAT6 reporter activity was measured using the Bright-Glo® Luciferase Assay System (Promega). 100 μL of Bright-Glo® reagent was added to each well, and luciferase activity was measured using Infinite® F500. The inhibition rate of each Example compound was calculated by the following formula using the luciferase activity value (G) when no Example compound was added and stimulation with IL-4 was performed, the luciferase activity value (H) when no Example compound was added and stimulation with IL-4 was not performed, and the luciferase activity value (I) when each Example compound was treated and stimulation with IL-4 was performed.
Note that the viable cell rate under each condition was 70% or more, and it was determined that the luciferase activity inhibitory activity of each example compound was appropriately evaluated.
(In general: Reporter assays use an easily measured gene product as a stand-in for the process of interest.)
As for `CCn1c(-c2ccc(-c3ncon3)cc2)nc2cc(Br)cc(C(=O)Nc3cccc(C(N)=O)c3)c21` [Ex. 7], the inhibition at 0.1 µM was 1%.
For the compound `CCn1c(-c2ccc3c(c2)CCOC3C(N)=O)cc2ccnc(C(=O)Nc3ccc(F)c(C(N)=O)c3)c21` (stereo not drawn) [Ex. 28], the inhibition at 0.1 µM came out at 43%.

Staying with this experiment, now noted: Homo sapiens, compound 1 μmol/L; IL-4 stimulation, luciferase activity; read-out: Inhibition rate (%).
As for `CCn1c(-c2ccc(-c3ncon3)cc2)nc2cc(Br)cc(C(=O)Nc3cccc(C(N)=O)c3)c21` [Ex. 7], the inhibition at 1 µM was 56%.
On to `CCn1c(-c2ccc3c(c2)CCOC3C(N)=O)cc2ccnc(C(=O)Nc3ccc(F)c(C(N)=O)c3)c21` (stereo not drawn) [Ex. 28], for which the inhibition at 1 µM was 93%.
